Experimental data: patent US8334316B2, “Substituted organosulfur compounds and methods of using thereof” (ACEA Biosciences, Inc., priority 2004, dated 2012)
Several values for one entry are separate records, joined by “and”; a condition that tells them apart may be missing. Identical values can stand only once. Marks after values point to notes of the source that are not given here.

Key:
[1] = tested on: purified bovine brain tubulin; test: In vitro microtubule assembly assay with pure (MAP-free) tubulin, light scattering OD400; type: biochemical
Description: Microtubule Assembly Assays. Microtubule seeds were synthesized by incubating purified bovine brain tubulin with 1 mM GTP, 10% glycerol and 10% DMSO at 35° C. for 30 minutes, followed by shearing by passing the assembled microtubules 6 times through a 27 gauge needle. Microtubule assembly was assayed by adding 27.5 ul of microtubule seeds to spectrophotometer cuvettes (maintained at 35° C.) containing 247.5 ul purified bovine brain tubulin in a PEM-100 buffer (100 mM Pipes pH=6.8, 1 mM […], 1 mM MgSO4) supplemented with 1 mM GTP (and drug where applicable) and monitoring the OD400 for 2 hours. Since the compounds are dissolved in DMSO and DMSO can have a significant effect on microtubule assembly, DMSO was added to all cuvettes so as to equal the largest volume of drug added to reactions. It should be noted that the initial velocity of the microtubule assembly reactions is so fast that one can not always catch the initial rise on the light scattering profile because it is occurring while samples are being prepared. However, all samples start at the same optical density, since they are identical with the exception of the drug being introduced.

[2] = tested on: Bcap-37 human breast cancer; test: Bcap-37 human breast cancer xenograft in nude mice, dosing from 24 h after transplantation (Example 3); type: in vivo; details: for tumor inhibition rate %: vs solvent control
Text: Both male and female mice were used. […] Test control. […] Preparation and Administration of Test Compounds. […] For human tumor xenograft model, all used materials, including animal food, animal cage, supporting materials and apparatus contacted by animals, were high-pressure sterilized. Nude mice were maintained in laminar flow shelves under SPF condition. After tumor transplantation, mouse weight and tumor size in each compound dosage group were dynamically monitored and plotted.

[3] = tested on: microtubules in COS cells; test: Microtubule network in cultured COS cells (anti-tubulin immunofluorescence, confocal microscopy); type: cell-based
Description: Cell Culture and Immunocytochemistry. COS cells were grown in DMEM media supplemented with non-essential amino acids, 10% FBS, antibiotic-antimycotic (Gibco BRL) at 37° C. and 5.5% CO2. […] Cells were then rinsed once with warm PBS, fixed with cold methanol, rinsed again in PBS and blocked overnight at 4° C. in PBT (PBS, 1% BSA, 0.5% Triton X-100). All subsequent stains and washes were done in PBT at room temperature unless stated otherwise. Cells were stained with the anti-tubulin mouse antibody DM-1 at 1:1000 for 1 hour, washed four times for 15 minutes each and then treated with Cy-3 conjugated goat anti mouse antibody at 1:100 for 1 hour in the dark. Next, samples were washed four times for 15 minutes each in PBT in the dark followed by a final 15 minute wash in PBS in the dark. Samples were then viewed by laser scanning confocal microscopy.

mouse Lewis lung cancer = test: In vivo antitumor efficacy, mouse Lewis lung cancer model, Example 3 (ACEA100108); details: for Inhibition rate (%): vs solvent control
Description: For human tumor xenograft models, cancer cells were passed twice in vivo before being transplanted into the nude mice for the study. Cultured human cancer cells in flask were first xenograft-transplanted in immunodeficient nude mice. After the cancer cells grew to a tumor of certain sizes in the nude mice, the tumor was removed form the nude mice and tumor tissues were dissected. The cell suspensions were prepared from the dissected tumor tissue and transplanted back to immunodeficient nude mice again (i.e. the second passage of cancer cells in human cancer xenograft-transplanted model). After the cancer cells grew to certain size, the tumor was removed from nude mice and the tumor tissues were dissected. The cell suspensions were prepared from dissected tissues and were used for the study of human cancer xenograft models described here.
Both male and female mice were used. However, for each experiment, animals of same sex were used. For the mouse transplanted tumor model, the numbers of animals tested were as follows: 10 for each dose group, 10 for positive control group and 20 for negative control group. For human tumor xenograft model, the numbers of animals tested were as follows: 6 for each dose group, 6 for positive control group and 12 for negative control group.
Test control. For negative control, each mouse was administered intravenously with the solvent only having the same volume and same concentration as those used in high dose ACEA100108 test, once a day, for 7 consecutive days. […] In a reference group, DBTS was administered intravenously at 50 mg/kg, once a day for 7 consecutive days.
Preparation and Administration of Test Compounds. […] Each time before use, this solution was diluted in normal saline to achieve desired ACEA100108 concentrations. Each mouse (about 20 g in weight) was administered intravenously with the compound solution of 0.5 mL at a controlled injection speed of 0.5 ml/0.5 min. 24 hrs after the tumor transplantation, intravenous injections of compound solutions into carrier mice were performed once a day, for consecutive 7 or 10 days.
Preparation of Tumor Cells for Transplantation and Determination of Compound Efficacy. To prepare the cancer cells for mouse Lewis lung cancer model, human breast cancer xenograft model and human colon cancer xenograft model, the fast growing tumors were first removed from the transplanted tumor mice. The tumor tissues were dissected and tumor cell suspensions were prepared in normal saline to have a concentration of 2-4×10^7 cells/ml. 0.2 ml of cell suspension was subcutaneously injected into the axillary region (right-side) of each mouse. […] Between two and four weeks after transplantation, mice were sacrificed and the transplanted tumors were removed from experimental mice.

[4] = tested on: purified bovine brain tubulin; test: In vitro microtubule dynamics (dynamic instability) assay, video microscopy; type: biochemical
Description: Tubulin Purification and Microtubule Dynamics Assays. Tubulin was purified, as described in the literature (“Kinetic stabilization of microtubule dynamic instability in vitro by vinblastine”, Toso, R. J., Jordan, […]., Matsumoto, B. and Wilson, L., Biochemistry, 1993, 32, 1285-1293). Briefly, microtubule-associated protein-rich bovine brain microtubule protein was prepared by three cycles of assembly and disassembly. Tubulin was purified from other microtubule proteins by elution through a Whatman P-11 phosphocellulose column equilibrated in PEM50 (50 mM Pipes, 1 mM MgSO4, 1 mM EGTA, 0.1 mM GTP). Purified tubulin (>99% pure) was drop-frozen in liquid nitrogen and stored at -70° C. […] The dynamics of individual microtubules were recorded at 37° C. using differential interference contrast enhanced video microscopy. The ends were designated as plus or minus on the basis of the growth rate, the number of microtubules that grew at opposite ends of the seeds, and the relative lengths of the microtubules (Panda, D., Goode, […]. and Wilson, L., Kinetic stabilization of microtubule dynamics at steady state by tau and microtubule-binding domains of tau, Biochemistry, 1995, 34, 11117-11127; Walker, R. A., O'Brien, […]., Voter, W. A., Erickson, H. P. and Salmon, E. D., Dynamic instability of individual microtubules analyzed by video light microscopy: rate constants and transition frequencies, J. Cell Biol. 1988, 107, 1437-1448). Plus ends were analyzed for 10 minutes per slide during the steady-state phase of polymerization ( 45 min after initiation of polymerization). Life histories of individual microtubules were collected as described by Panda et al. 1995 (Panda, D., Goode, […]. and Wilson, L., Kinetic stabilization of microtubule dynamics at steady state by tau and microtubule-binding domains of tau, Biochemistry, 1995, 34 11117-11127) with modifications. Data points were collected at 1-3 s intervals. […] Average rates, lengths and durations are the averages of independent events. The catastrophe frequency was calculated by dividing the number of shortening events by the total time of growth and attenuation tracked, and rescue frequency was calculated by dividing the number of rescue events by the total time of shortening tracked. To control for experimental error, each condition was filmed over multiple days using at least two distinct tubulin/GTP mixtures (2-3 slides each). No gross variation in microtubule dynamics was observed between mixtures or slides of a given condition. The concentration of drug used in dynamic instability assays was chosen by initially observing microtubules stabilized with half the concentration used in microtubule assembly assays.

[5] = 50 mg/kg iv x7 qd, 7 days after transplantation
[6] = 10 mg/kg iv x7 qd, 7 days after transplantation

## c1ccc(CSSSCc2ccccc2)cc1 [DBTS, Dibenzyl trisulfide]
[1]; all doses (especially prominent at 9 uM)
  Effect on extent of microtubule assembly: inhibit the extent of microtubule assembly significantly
[2]; [5]
  Mice with palpable tumor / total mice: 2/6††
  Tumor volume (cm^3): 0.01 cm^3
[2]; 50 mg/kg iv x7 qd, 14 d
  Tumor volume (cm^3): 0.014 ± 0.01 cm^3
[2]; 50 mg/kg iv x7 qd, 21 d
  Tumor volume (cm^3): 0.079 ± 0.01 cm^3
[2]; 50 mg/kg iv x7 qd, 24 d (end), listed as ACEA100101
  Tumor volume (cm^3): 0.196 cm^3 and 0.196 ± 0.02 cm^3
[2]; 50 mg/kg/d iv x7 qd
  TV inhibition rate % T/C: 11.17%
  Tumor weight: 0.568 ± 0.07 g
  tumor inhibition rate %: 66.98%
[2]; 50 mg/kg/d iv x7 qd, 0 day (beginning), listed as ACEA100101
  Body weight of mice: 18.0 g and 18 ± 1 g
[2]; 50 mg/kg/d iv x7 qd, 7 day
  Body weight of mice: 18.7 ± 0.8 g
[2]; 50 mg/kg/d iv x7 qd, 14 d
  Body weight of mice: 20.3 ± 0.8 g
[2]; 50 mg/kg/d iv x7 qd, 21 d
  Body weight of mice: 22 ± 0.6 g
[2]; 50 mg/kg/d iv x7 qd, 24 d (end), listed as ACEA100101
  Body weight of mice: 22.8 g and 22.8 ± 1.6 g
[3]; 4 hours exposure
  Microtubule network appearance: The microtubule network is completely disrupted
[3]; 24 hours, 6 uM or 18 uM
  Cell viability / microtubule network: no cells are viable
Mouse Lewis lung cancer; 25 mg/kg/d iv x7 qd
  Animal No. beginning/end (survival): 10/10
  Animal weight (g) beginning: 20.5 g
  Animal weight (g) end: 23.6 g
  Tumor weight: 1.14 ± 0.17 g
  Inhibition rate (%): 57.93%
Mouse Lewis lung cancer; 100 mg/kg/d iv x7 qd
  Animal No. beginning/end (survival): 10/6
  Animal weight (g) beginning: 20.7 g
  Animal weight (g) end: 23.1 g
Mouse Lewis lung cancer; 100 mg/kg/d iv x7 qd (text: administered only 5 times because of toxicity)
  Tumor weight: 1.00 ± 0.15 g
Mouse Lewis lung cancer; 100 mg/kg/d iv x7 qd (text: only 5 times because of toxicity)
  Inhibition rate (%): 63.10%
[4]; DBTS .1uM
  % time spent in attenuation phase: 52%
  % time spent in growth phase: 45%
  % time spent in shortening phase: 3%
  Dynamicity: 1.72 um/min
  Frequency of transitions ± SD: Catastrophes: 0.17 ± 0.04 events/min
  Frequency of transitions ± SD: Rescues: 5.3 ± 1.3 events/min
  Frequency of transitions ± SD: Total: 0.50 ± 0.07 events/min
  Growth Rate ± SEM: 1.55 ± 0.1 um/min
  Mean duration of attenuation ± SEM: 2.15 ± 0.3
  Shortening Rate ± SEM: 35.40 ± 6.0 um/min
[4]; growth events, DBTS .1uM
  Duration of Event: 2.21 ± 0.3 min
  Length of Excursion: 3.34 ± 0.3 um
[4]; plus ends, steady state
  Effect on duration of growth events: increase the average duration of growth events
  Effect on length of growth events: increase the average duration of growth events and consequently the average length grown in a growth event
  Effect on length of shortening events: reduced
  Effect on microtubule growth rate: did not affect the microtubule growth rate
  Effect on percentage of time spent growing: increased the percentage of time spent growing
[4]; shortening events, DBTS .1uM
  Duration of Event: 0.17 ± 0.04 min
  Length of Excursion: 6.02 ± 0.3 um

## CC(=O)O[C@H]1C(=O)[C@@]2(C)[C@H]([C@H](OC(=O)c3ccccc3)[C@]3(O)C[C@H](OC(=O)[C@H](O)[C@@H](NC(=O)c4ccccc4)c4ccccc4)C(C)=C1C3(C)C)[C@]1(OC(C)=O)CO[C@@H]1C[C@@H]2O [Taxol, paclitaxel, reference compound]
[2]; [6]
  Mice with palpable tumor / total mice: 4/6††
  Tumor volume (cm^3): 0.01 cm^3
[2]; 10 mg/kg iv x7 qd, 14 d
  Tumor volume (cm^3): 0.065 ± 0.02 cm^3
[2]; 10 mg/kg iv x7 qd, 21 d
  Tumor volume (cm^3): 0.249 ± 0.07 cm^3
[2]; 10 mg/kg iv x7 qd, 24 d (end)
  Tumor volume (cm^3): 0.685 cm^3 and 0.685 ± 0.14 cm^3
[2]; 10 mg/kg/d iv x7 qd
  TV inhibition rate % T/C: 39.05%
  Tumor weight: 0.88 ± 0.17 g
  tumor inhibition rate %: 48.84%
[2]; 10 mg/kg/d iv x7 qd, 0 day (beginning)
  Body weight of mice: 18.1 g and 18.1 ± 1.1 g
[2]; 10 mg/kg/d iv x7 qd, 7 day
  Body weight of mice: 19.7 ± 1 g
[3]; 4 hours exposure
  Microtubule network appearance: Microtubules appear bundled in some locations
[3]; 24 hours exposure, increasing dosage
  Microtubule network appearance: increased bundling and the short microtubules persist
Mouse Lewis lung cancer; 10 mg/kg/d iv x7 qd
  Animal weight (g) beginning: 20.4 g
  Animal weight (g) end: 23.8 g
  Tumor weight: 1.52 ± 0.15 g
  Inhibition rate (%): 43.91%

## Cc1cccc(CSSSCc2cccc(C)c2)c1 [ACEA100116, di(m-methylbenzyl)trisulfide]
[1]; 9 uM and 27 uM
  Effect on microtubule assembly: promotes microtubule assembly
[3]; 4 hours exposure
  Microtubule network appearance: at the two higher concentrations, microtubules appear very short and abnormal
[3]; 24 hours, 1 uM
  Microtubule network / cell appearance: appear relatively normal
[3]; 24 hours, 3 uM or 9 uM
  Cell viability: essentially all cells treated with 3 uM or 9 uM were dead
[4]; plus ends, steady state
  Effect on length of growth events: little effect upon the length of growing events
  Effect on length of shortening events: strong effect upon the length of shortening events
  Effect on microtubule growth rate: increased the growth rate
  Effect on rate of shortening: no effect upon the rate of shortening
